Data set [1] concerns SNU-16. As to conditions: Homo sapiens, dose 1-100 nM, time 36.0 hrs.
Data set [2] has as its system SNU-16. Description: cells. In kind it is functional, cell-based. The settings on record: Homo sapiens, SNU-16, 72 h.
A further data set relates to HCT-116. As to the kind of experiment: cells. In kind it is functional, cell-based. As to conditions: Homo sapiens, HCT-116, 72 h.
The nature of the next data set: cells. Format: functional, cell-based. The settings on record: Homo sapiens, KATO III, 72 h.
The test system of another data set is K562. As to the kind of experiment: cells. Format: functional, cell-based. As to conditions: Homo sapiens, K562, 72 h.
The test system of a further data set is Jurkat. Description: cells. Format: functional, cell-based. As to conditions: Homo sapiens, 72 h.
For a further data set, the system named is A2780. Description: cells. In kind it is functional, cell-based. The settings on record: Homo sapiens, A2780, 72 h.
In data set [3] the test system is SNU-16. The settings on record: Homo sapiens, dose 1-100 nM, time 36.0 hrs. This is another data set of the same source.
The next data set concerns the target Histone deacetylase 1 (Homo sapiens, UniProt Q13547). As to the kind of experiment: Inhibition of HDAC1 (unknown origin).
In data set [4] the target is T1, Protein deacetylase HDAC6 (Homo sapiens, UniProt Q9UBN7).
T1 sequence (Q9UBN7 whole entry): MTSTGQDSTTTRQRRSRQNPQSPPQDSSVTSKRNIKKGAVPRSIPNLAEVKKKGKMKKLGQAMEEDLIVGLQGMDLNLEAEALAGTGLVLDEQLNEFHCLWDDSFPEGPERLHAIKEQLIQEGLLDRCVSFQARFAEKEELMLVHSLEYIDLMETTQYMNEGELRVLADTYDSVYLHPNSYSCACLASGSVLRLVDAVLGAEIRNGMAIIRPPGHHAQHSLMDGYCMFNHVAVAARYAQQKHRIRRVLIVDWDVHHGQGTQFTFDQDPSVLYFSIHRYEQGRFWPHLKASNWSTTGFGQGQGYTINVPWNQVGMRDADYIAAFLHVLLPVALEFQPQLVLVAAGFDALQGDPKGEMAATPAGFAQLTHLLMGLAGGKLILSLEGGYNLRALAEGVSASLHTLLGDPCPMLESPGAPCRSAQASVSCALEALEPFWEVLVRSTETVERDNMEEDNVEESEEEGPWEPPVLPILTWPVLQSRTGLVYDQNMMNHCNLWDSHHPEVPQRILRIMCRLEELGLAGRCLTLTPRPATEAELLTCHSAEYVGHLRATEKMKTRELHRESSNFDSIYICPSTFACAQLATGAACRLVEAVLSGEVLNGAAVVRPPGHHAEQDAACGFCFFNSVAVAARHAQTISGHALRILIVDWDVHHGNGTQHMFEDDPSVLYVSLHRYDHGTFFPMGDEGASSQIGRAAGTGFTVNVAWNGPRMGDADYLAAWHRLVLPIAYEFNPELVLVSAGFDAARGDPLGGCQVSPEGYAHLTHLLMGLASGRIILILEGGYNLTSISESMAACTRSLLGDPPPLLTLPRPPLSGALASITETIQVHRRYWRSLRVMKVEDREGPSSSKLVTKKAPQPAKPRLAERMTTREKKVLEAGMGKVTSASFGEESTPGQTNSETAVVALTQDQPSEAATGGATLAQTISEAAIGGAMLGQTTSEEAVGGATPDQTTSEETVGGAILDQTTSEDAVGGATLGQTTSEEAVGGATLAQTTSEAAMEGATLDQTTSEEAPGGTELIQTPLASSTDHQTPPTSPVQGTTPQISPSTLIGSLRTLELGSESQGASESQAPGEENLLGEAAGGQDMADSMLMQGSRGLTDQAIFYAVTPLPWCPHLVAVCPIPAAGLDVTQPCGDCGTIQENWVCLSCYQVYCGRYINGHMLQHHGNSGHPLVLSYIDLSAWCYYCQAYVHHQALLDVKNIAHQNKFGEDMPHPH
Description: Inhibition of HDAC6 (unknown origin).

For data set [5], the system named is SNU-16. As to the kind of experiment: Induction of apoptosis in human SNU-16 cells assessed as late apoptotic cells at 0.1 uM incubated for 72 hrs by annexin-V/FITC propidium iodide staining based flow cytometry analysis (reference value: 3.41%). Format: functional.
Data set [6] concerns SNU-16. Description: Induction of apoptosis in human SNU-16 cells assessed as dead cells at 1 uM incubated for 72 hrs by annexin-V/FITC propidium iodide staining based flow cytometry analysis (reference value: […]). Format: functional. A general note: A flow cytometer gives signals particle by particle.
For data set [7], the system named is SNU-16. Description: Induction of apoptosis in human SNU-16 cells assessed as late apoptotic cells at 0.3 uM incubated for 72 hrs by annexin-V/FITC propidium iodide staining based flow cytometry analysis (reference value: 3.41%). In kind it is functional.
The test system of data set [8] is SNU-16. As to the kind of experiment: Induction of apoptosis in human SNU-16 cells assessed as dead cells at 0.1 uM incubated for 72 hrs by annexin-V/FITC propidium iodide staining based flow cytometry analysis (reference value: […]). Format: functional.
In data set [9] the test system is SNU-16. Description: Induction of apoptosis in human SNU-16 cells assessed as live cells at 0.3 uM incubated for 72 hrs by annexin-V/FITC propidium iodide staining based flow cytometry analysis (reference value: 90.92%). In kind it is functional.
Data set [10] has as its system SNU-16. As to the kind of experiment: Induction of apoptosis in human SNU-16 cells assessed as early apoptotic cells at 0.03 uM incubated for 72 hrs by annexin-V/FITC propidium iodide staining based flow cytometry analysis (reference value: 3.02%). In kind it is functional.
Data set [11] has as its system SNU-16. Description: Induction of apoptosis in human SNU-16 cells assessed as late apoptotic cells at 1 uM incubated for 72 hrs by annexin-V/FITC propidium iodide staining based flow cytometry analysis (reference value: 3.41%). In kind it is functional.
In data set [12] the test system is SNU-16. As to the kind of experiment: Induction of apoptosis in human SNU-16 cells assessed as dead cells at 0.03 uM incubated for 72 hrs by annexin-V/FITC propidium iodide staining based flow cytometry analysis (reference value: […]). Format: functional.
The test system of data set [13] is SNU-16. As to the kind of experiment: Induction of apoptosis in human SNU-16 cells assessed as early apoptotic cells at 0.3 uM incubated for 72 hrs by annexin-V/FITC propidium iodide staining based flow cytometry analysis (reference value: 3.02%). In kind it is functional.
For data set [14], the system named is SNU-16. Description: Induction of apoptosis in human SNU-16 cells assessed as live cells at 0.03 uM incubated for 72 hrs by annexin-V/FITC propidium iodide staining based flow cytometry analysis (reference value: 90.92%). In kind it is functional.
Data set [15] in a line: Toxicity in BALB/c nude mouse xenografted with human HCT-116 cells assessed as reduction in body weight at 30 mg/kg/day, po administered for 18 days and measured every 3 days. In kind it is organism-based. As to conditions: in vivo, 432 h, time 18 day. Background: In xenograft studies the graft and the host belong to different species.
In data set [16] the test system is SNU-16. As to the kind of experiment: Induction of apoptosis in human SNU-16 cells assessed as early apoptotic cells at 1 uM incubated for 72 hrs by annexin-V/FITC propidium iodide staining based flow cytometry analysis (reference value: 3.02%). In kind it is functional.
Data set [17] in a line: Toxicity in BALB/c nude mouse xenografted with human SNU-16 cells assessed as reduction in body weight at 50 mg/kg/day, ip administered for 18 days and measured every 3 days. As to conditions: in vivo, 432 h, time 18 day. In kind it is organism-based.
In data set [18] the test system is SNU-16. As to the kind of experiment: Induction of apoptosis in human SNU-16 cells assessed as dead cells at 0.3 uM incubated for 72 hrs by annexin-V/FITC propidium iodide staining based flow cytometry analysis (reference value: […]). Format: functional.
The test system of data set [19] is SNU-16. As to the kind of experiment: Induction of apoptosis in human SNU-16 cells assessed as live cells at 0.1 uM incubated for 72 hrs by annexin-V/FITC propidium iodide staining based flow cytometry analysis (reference value: 90.92%). Format: functional.
The test system of data set [20] is SNU-16. As to the kind of experiment: Induction of apoptosis in human SNU-16 cells assessed as live cells at 1 uM incubated for 72 hrs by annexin-V/FITC propidium iodide staining based flow cytometry analysis (reference value: 90.92%). Format: functional.
Data set [21] deals with SNU-16. As to the kind of experiment: Induction of apoptosis in human SNU-16 cells assessed as early apoptotic cells at 0.1 uM incubated for 72 hrs by annexin-V/FITC propidium iodide staining based flow cytometry analysis (reference value: 3.02%). In kind it is functional.
Data set [22] has as its system SNU-16. Description: Induction of apoptosis in human SNU-16 cells assessed as late apoptotic cells at 0.03 uM incubated for 72 hrs by annexin-V/FITC propidium iodide staining based flow cytometry analysis (reference value: 3.41%). Format: functional.
Data set [23] deals with Fibroblast growth factor receptor 3 (Homo sapiens, UniProt P22607). As to the kind of experiment: Inhibition of FGFR3 (unknown origin).
For data set [24], the target named is Fibroblast growth factor receptor 4 (Homo sapiens, UniProt P22455). As to the kind of experiment: Inhibition of FGFR4 (unknown origin).
In data set [25] the target is Fibroblast growth factor receptor 2 (Homo sapiens, UniProt P21802). As to the kind of experiment: Inhibition of FGFR2 (unknown origin).
In the next data set the target is T2, Histone deacetylase 8 (Homo sapiens, UniProt Q9BY41).
T2 sequence (Q9BY41 whole entry): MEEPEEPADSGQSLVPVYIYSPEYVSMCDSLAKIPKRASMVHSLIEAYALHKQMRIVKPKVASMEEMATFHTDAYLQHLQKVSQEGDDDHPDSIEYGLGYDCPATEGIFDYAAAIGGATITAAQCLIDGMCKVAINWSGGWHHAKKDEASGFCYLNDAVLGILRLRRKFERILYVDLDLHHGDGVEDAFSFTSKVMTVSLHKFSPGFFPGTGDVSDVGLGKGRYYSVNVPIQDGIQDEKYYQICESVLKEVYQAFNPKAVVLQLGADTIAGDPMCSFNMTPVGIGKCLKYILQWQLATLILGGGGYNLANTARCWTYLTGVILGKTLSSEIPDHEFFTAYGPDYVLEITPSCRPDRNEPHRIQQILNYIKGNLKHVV
As to the kind of experiment: Inhibition of HDAC8 (unknown origin).

Data set [26] addresses Fibroblast growth factor receptor 1 (Homo sapiens, UniProt P11362). As to the kind of experiment: Inhibition of FGFR1 (unknown origin).

Active and inactive are the calls of the source. The rule behind the calls is not given here.

Chain of Histone deacetylase 1 (Q13547 whole entry): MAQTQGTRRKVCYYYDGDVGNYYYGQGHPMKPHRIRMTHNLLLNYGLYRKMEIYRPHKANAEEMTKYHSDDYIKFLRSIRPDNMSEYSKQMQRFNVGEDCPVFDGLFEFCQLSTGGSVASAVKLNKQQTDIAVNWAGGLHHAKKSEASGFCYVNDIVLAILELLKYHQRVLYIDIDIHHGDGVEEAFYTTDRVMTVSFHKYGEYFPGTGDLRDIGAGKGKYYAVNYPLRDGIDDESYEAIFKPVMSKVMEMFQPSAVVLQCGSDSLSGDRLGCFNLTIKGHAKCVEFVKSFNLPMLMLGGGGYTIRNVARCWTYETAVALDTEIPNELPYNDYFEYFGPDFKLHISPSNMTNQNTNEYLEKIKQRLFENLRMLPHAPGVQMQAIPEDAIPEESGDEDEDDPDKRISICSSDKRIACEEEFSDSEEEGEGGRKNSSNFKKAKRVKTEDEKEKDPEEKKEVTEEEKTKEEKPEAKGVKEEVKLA
Chain of Fibroblast growth factor receptor 4 (P22455 whole entry): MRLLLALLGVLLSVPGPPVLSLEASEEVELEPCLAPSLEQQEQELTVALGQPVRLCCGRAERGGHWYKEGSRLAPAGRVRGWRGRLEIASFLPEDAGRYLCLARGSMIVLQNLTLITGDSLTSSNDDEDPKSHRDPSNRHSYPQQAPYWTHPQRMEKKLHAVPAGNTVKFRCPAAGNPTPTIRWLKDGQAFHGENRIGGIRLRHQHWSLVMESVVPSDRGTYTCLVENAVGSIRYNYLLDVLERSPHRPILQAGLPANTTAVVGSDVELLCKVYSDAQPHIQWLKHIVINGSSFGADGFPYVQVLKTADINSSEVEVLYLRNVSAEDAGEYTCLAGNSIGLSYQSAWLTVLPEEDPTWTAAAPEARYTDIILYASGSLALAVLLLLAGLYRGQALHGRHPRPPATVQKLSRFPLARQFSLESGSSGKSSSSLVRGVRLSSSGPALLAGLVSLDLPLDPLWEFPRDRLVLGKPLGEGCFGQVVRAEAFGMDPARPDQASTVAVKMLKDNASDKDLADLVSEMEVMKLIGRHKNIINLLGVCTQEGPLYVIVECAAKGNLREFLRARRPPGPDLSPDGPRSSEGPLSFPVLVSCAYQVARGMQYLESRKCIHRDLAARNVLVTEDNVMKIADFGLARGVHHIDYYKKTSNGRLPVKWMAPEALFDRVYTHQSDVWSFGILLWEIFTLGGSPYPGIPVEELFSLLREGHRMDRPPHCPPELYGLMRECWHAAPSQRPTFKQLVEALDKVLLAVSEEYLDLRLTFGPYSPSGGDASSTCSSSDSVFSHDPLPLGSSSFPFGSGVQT
Chain of Fibroblast growth factor receptor 2 (P21802 whole entry): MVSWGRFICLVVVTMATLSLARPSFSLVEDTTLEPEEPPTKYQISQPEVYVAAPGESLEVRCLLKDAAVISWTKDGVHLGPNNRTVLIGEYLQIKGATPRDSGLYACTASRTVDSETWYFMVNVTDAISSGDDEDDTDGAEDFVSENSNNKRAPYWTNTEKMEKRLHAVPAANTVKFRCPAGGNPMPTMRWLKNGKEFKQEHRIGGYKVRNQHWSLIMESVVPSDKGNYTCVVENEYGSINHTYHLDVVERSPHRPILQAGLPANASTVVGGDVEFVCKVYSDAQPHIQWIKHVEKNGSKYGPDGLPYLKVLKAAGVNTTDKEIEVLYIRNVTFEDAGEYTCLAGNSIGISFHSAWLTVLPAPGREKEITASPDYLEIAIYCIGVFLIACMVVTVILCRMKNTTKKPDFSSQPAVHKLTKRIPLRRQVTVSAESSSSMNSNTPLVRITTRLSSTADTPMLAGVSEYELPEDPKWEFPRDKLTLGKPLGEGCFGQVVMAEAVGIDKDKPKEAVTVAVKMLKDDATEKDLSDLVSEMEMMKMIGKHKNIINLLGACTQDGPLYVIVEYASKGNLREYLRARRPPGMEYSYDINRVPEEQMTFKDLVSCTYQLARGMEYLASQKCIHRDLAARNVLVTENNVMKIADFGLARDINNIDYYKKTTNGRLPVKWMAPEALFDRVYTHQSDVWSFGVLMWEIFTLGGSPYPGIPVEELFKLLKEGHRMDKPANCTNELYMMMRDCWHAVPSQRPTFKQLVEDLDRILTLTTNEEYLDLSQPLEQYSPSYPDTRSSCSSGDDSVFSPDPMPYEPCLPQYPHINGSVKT
Chain of Fibroblast growth factor receptor 3 (P22607 whole entry): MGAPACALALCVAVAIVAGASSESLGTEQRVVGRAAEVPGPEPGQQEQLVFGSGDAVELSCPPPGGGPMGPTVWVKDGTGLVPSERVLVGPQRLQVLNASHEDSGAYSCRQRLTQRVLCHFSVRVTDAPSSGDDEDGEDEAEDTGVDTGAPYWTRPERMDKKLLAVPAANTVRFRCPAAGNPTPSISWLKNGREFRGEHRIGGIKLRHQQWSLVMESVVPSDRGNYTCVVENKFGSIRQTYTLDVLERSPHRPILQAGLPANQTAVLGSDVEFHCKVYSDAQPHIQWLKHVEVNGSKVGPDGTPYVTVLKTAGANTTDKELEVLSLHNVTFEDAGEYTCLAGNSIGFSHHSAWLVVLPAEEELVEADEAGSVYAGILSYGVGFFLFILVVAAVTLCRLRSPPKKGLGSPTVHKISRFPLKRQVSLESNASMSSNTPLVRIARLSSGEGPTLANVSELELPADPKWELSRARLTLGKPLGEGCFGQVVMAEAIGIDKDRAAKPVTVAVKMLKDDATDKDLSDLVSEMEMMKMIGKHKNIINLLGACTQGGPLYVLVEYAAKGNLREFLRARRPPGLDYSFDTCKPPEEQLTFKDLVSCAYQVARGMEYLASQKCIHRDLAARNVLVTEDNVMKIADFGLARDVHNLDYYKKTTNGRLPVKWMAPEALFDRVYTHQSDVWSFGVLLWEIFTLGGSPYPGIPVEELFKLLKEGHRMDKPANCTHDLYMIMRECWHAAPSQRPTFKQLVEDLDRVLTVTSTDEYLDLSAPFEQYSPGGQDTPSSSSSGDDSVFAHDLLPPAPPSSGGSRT
Chain of Fibroblast growth factor receptor 1 (P11362 whole entry): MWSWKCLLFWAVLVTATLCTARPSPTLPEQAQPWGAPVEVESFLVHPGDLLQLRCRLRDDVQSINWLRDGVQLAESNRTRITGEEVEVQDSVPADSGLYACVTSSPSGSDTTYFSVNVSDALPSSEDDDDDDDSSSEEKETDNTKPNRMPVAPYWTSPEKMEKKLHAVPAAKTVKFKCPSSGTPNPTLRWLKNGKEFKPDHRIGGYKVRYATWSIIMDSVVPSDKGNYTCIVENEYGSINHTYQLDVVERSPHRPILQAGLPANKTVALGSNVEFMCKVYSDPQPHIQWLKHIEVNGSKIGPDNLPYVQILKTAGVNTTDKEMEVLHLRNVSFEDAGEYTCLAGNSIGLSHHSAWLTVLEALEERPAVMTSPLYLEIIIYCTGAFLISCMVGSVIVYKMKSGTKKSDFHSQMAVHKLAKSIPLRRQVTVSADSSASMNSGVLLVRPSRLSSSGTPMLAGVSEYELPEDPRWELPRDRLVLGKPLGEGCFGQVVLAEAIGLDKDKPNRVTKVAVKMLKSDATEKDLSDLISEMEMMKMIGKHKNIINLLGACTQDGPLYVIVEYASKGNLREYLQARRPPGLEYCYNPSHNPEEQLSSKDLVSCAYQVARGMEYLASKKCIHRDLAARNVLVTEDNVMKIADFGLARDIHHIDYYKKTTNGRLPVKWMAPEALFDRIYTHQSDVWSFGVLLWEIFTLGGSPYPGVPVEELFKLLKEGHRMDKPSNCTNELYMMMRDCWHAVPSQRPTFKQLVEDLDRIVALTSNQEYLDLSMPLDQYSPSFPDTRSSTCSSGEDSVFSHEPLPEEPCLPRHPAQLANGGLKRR

Consider `COc1cc(OC)cc(N(CCNC(C)C)c2ccc3ncc(-c4cnn(C)c4)nc3c2)c1` [ERDAFITINIB], for which the inhibition result in the data set with SNU-16 [1] was “Dde”. Further, the IC50 (commonly the point on the concentration scale where inhibition reaches its midpoint) with SNU-16 [2] was 0.7 nM; in the data set on HCT-116 it was 4240 nM; in the data set “cells”, 4 nM; in the data set with K562 it was 3020 nM; in the data set on Jurkat, 6810 nM; in the data set on A2780 it was 20 nM. Further, the inhibition result in the data set with SNU-16 [3] was “Active”.

Turning to `COc1cc(OC)cc(N(CCCCCCC(=O)NO)c2ccc3ncc(-c4cnn(C)c4)nc3c2)c1`, the IC50 was 5.8 nM against Histone deacetylase 1 and 13 nM in data set [4].

As for `COc1cc(OC)cc(N(CCCCCC(=O)NO)c2ccc3ncc(-c4cnn(C)c4)nc3c2)c1`, the IC50 against Histone deacetylase 1 worked out at 2.6 nM; in data set [4], 6.3 nM.

In the case of `O=C(CCCCCCC(=O)Nc1ccccc1)NO` [VORINOSTAT], the Activity is listed as 9.98% with SNU-16 [5]; 4.21% in the data set with SNU-16 [6]; 10.46% in the data set with SNU-16 [7]; 6.19% in the data set with SNU-16 [8]; 80.66% in the data set on SNU-16 [9]; 3.12% in the data set with SNU-16 [10]. The Activity with SNU-16 [11] is listed as 15.42%; with SNU-16 [12], 5.77%; with SNU-16 [13] it was 2.48%; in the data set with SNU-16 [14], 84.26%; in data set [15], “Non-Toxic”; in the data set with SNU-16 [16], 3.16%. Besides, the Activity entry is “Non-Toxic” in data set [17]; 6.4% in the data set with SNU-16 [18]; 80.33% in the data set with SNU-16 [19]; 77.22% in the data set with SNU-16 [20]; 3.51% in the data set on SNU-16 [21]; 6.85% in the data set with SNU-16 [22]. In the data set with K562, the IC50 amounted to 2240 nM.

For `COc1cc(OC)cc(N(CCNC(C)C)c2ccc3ncc(-c4cnn(CCOc5ccc(C(=O)NO)cc5)c4)nc3c2)c1`, the IC50 was found to be 0.62 nM in [23]; 1.3 nM in data set [24]; 1.9 nM in data set [25]; 5.9 nM against Histone deacetylase 1; 3.4 nM in data set [4]; 288 nM against Histone deacetylase 8.

Turning to `COc1cc(OC)cc(N(CCNC(C)C)c2ccc3ncc(-c4cnn(Cc5ccc(/C=C/C(=O)NO)cc5)c4)nc3c2)c1`, the IC50 in data set [26] came out at 28 nM; with SNU-16 [2] it was 50 nM; with HCT-116 it was 60 nM; in the data set “cells”, 120 nM; on Histone deacetylase 1, 47 nM; in the data set with K562 it was 460 nM. For the same compound, the IC50 was found to be 6380 nM in the data set on Jurkat and 60 nM in the data set with A2780.

In the case of `COc1cc(OC)cc(N(CCCCC(=O)NO)c2ccc3ncc(-c4cnn(C)c4)nc3c2)c1`, the results for the IC50 (on Histone deacetylase 1; in data set [4]) were 157 nM and 107 nM, respectively.

Source of the values: ChEMBL document CHEMBL5150061, “Design and Synthesis of Fibroblast Growth Factor Receptor (FGFR) and Histone Deacetylase (HDAC) Dual Inhibitors for the Treatment of Cancer” (J Med Chem, 2022).
